In patent US6620834B1, “Medicinal compositions for treating colorectal cancer” (Hisamitsu Pharmaceutical Co., Inc., priority 1999, dated 2003):

System: Yoshida's sarcoma
Assay: liver metastasis inhibitory effect in Yoshida's sarcoma rat model bearing a colorectal cancer
Assay type: in vivo
Conditions: Donryu rats, Yoshida's sarcoma injected to sigmoid subserous; intra-colon administration for 5 days, autopsy day 6; versus control group
Description: The solution was prepared in which pravastatin and aspirin were mixed in the mixing ratio below, and the pharmacological evaluation was carried out in the liver metastasis model of rat colorectal cancer.
The liver metastasis inhibitory effect was evaluated in the following procedure by use of the mix solution prepared in the example 1.
Donryu strain rats (8 weeks old) were used. Under a sodium pentobarbital anesthesia a catheter was inserted from the ileocecum into the colon, and the plug was put out from the back part and fixed. At the same time Yoshida's sarcoma (1.5×10^6cells/30 μl/rat) was injected to the sigmoid subserous.
The mix solution prepared in the example 1 was administered intra-colon or orally for 5 days from the next day after the surgery, and at day 6 a pathologic autopsy was made.
When the test on day 6 was finished, rats were killed by bleeding for a pathologic autopsy. The liver was isolated from each individual, fixed by a neutral buffered formalin solution, and a tissue section was then prepared to obtain histopathological findings. The metastasis inhibitory ratio was calculated comparing with the engraftment ratio of the cancer cells in the control group.

SMILES: CC(=O)Oc1ccccc1C(=O)O [aspirin, Aspirin]
- liver metastasis inhibitory effect: hardly observed
